Experimental data reported in PMC7662385, “New Fluorene Derivatives from Dendrobium gibsonii and Their α-Glucosidase Inhibitory Activity” (Molecules, 2020).
Where two headings read alike, the source gives them in different places.

Columns and labels:
[1] = system: α-glucosidase; assay: α-glucosidase enzyme kinetic study (Lineweaver–Burk and secondary plots); assay type: biochemical, Yeast; conditions: for mode of α-glucosidase inhibition: Lineweaver–Burk plots
Experimental: Further investigation was conducted on compound 2 to study its kinetic properties with regard to the enzyme α-glucosidase using varying concentrations of the substrate.
(§1) The α-glucosidase inhibition assay was performed according to previous protocols. The assay was based on the release of p-nitrophenol from p-nitrophenol-α-D-glucopyranoside (substrate). The test samples were prepared by dissolving in 50% DMSO. […] The sample solution (10 μL) and 0.1 U/mL α-glucosidase (40 μL) in phosphate buffer (pH 6.8) were added to a 96-well plate. The mixture was preincubated at 37 °C for 10 min before adding 2 mM p-nitrophenol-α-D-glucopyranoside (50 μL). Then, the reaction was incubated again at 37 °C for 20 min. Finally, 1 M Na2CO3 solution (100 μL) was added to stop the reaction. The absorbance of the mixture was determined using a microplate reader at 405 nm.
An enzyme kinetic study was conducted based on the α-glucosidase assay as mentioned above. […] The inhibition mode was determined by double-reciprocal Lineweaver–Burk plot (1/V vs. 1/[S]). In order to estimate the Ki value, slopes of double-reciprocal lines were used to construct a secondary plot, and the Ki was calculated from the line equation of the plot.

[2] = target: α-glucosidase; assay: α-glucosidase inhibition assay (p-nitrophenol release from p-nitrophenol-α-D-glucopyranoside); assay type: biochemical, Yeast; conditions: two-fold serial dilution; acarbose positive control; read-out: α-glucosidase inhibitory activity IC50
Experimental: In this study, each compound was initially tested at 100 μg/mL.
as §1

Row | SMILES | mode of α-glucosidase inhibition [1] | Vmax ([1]; inhibitor dose 465 μM, PNPG 0.25 to 2 mM) | Km ([1]; inhibitor dose 465 μM, PNPG 0.25 to 2 mM, read-out: Km) [µM] | Vmax ([1]; inhibitor dose 930 μM, PNPG 0.25 to 2 mM) | Vmax as stated in text ([1]; with changing inhibitor concentration, dose not given) | IC50 [2] [µM] | Ki ([1]; from secondary plot of slopes of double-reciprocal lines) [µM] | Vmax ([1]; inhibitor dose 11 μM, PNPG 0.25 to 2 mM) | Km ([1]; inhibitor dose 11 μM, PNPG 0.25 to 2 mM, read-out: Km) [µM] | Vmax ([1]; inhibitor dose 22 μM, PNPG 0.25 to 2 mM) | Km ([1]; inhibitor dose 22 μM, PNPG 0.25 to 2 mM, read-out: Km) [µM] | Km ([1]; with changing inhibitor concentration, dose not given, read-out: Km as stated in text) [µM]
1 | C[C@H]1O[C@H](O[C@H]2[C@H](O)[C@@H](O)[C@@H](O[C@H]3[C@H](O)[C@@H](O)C(O)O[C@@H]3CO)O[C@@H]2CO)[C@H](O)[C@@H](O)[C@@H]1N[C@H]1C=C(CO)[C@@H](O)[C@H](O)[C@H]1O (some centres unmarked) [acarbose, reference compound] | competitive | 0.10 ∆OD/min | 6740 | 0.11 ∆OD/min | 0.11 ∆OD/min | – | – | – | – | – | – | –
2 | COc1cc2c3c(c1O)CCc1cc(OC)c(OC)c(c1-3)OC21c2cccc(O)c2-c2c1cc(OC)c(O)c2OC (centres unmarked) [Compound 2, dendrogibsol] | noncompetitive | – | – | – | – | 19.8 ± 0.9 | 20.4 | 0.086 ∆OD/min | 1230 | 0.052 ∆OD/min | 1190 | 1550
3 | COc1cc(O)c2c(c1)CCc1cc(O)ccc1-2 [Compound 7, lusianthridin] | – | – | – | – | – | 185 ± 6.9 | – | – | – | – | – | –
